In ChEMBL document CHEMBL4837267, “Development of Potent 3-Br-isoxazoline-Based Antimalarial and Antileishmanial Compounds” (ACS Med Chem Lett, 2021):
Active and inactive are the calls of the source. No cut-off for these calls is given here.

Key:
Plasmodium falciparum [1] = test: Antimalarial activity against chloroquine resistant Plasmodium falciparum W2 infected in human red blood cells assessed as reduction in parasite growth measured after 72 hrs by parasite lactate dehydrogenase assay; type: functional, organism-based; settings: W2, 72 h
Leishmania tropica [2] = test: Antileishmanial activity against Leishmania tropica (MHOM/SY/2012/ISS3130) promastigotes assessed as reduction in parasite viability measured after 72 hrs by MTT assay; type: functional, organism-based; settings: MHOM/SY/2012/ISS3130, 72 h
Leishmania infantum [3] = test: Antileishmanial activity against Leishmania infantum (MHOM/TN/80/IPTI) promastigotes assessed as reduction in parasite viability measured after 72 hrs by MTT assay; type: functional, organism-based; settings: MHOM/TN/80/IPT
Plasmodium falciparum [4] = test: Antimalarial activity against chloroquine sensitive Plasmodium falciparum D10 infected in human red blood cells assessed as reduction in parasite growth measured after 72 hrs by parasite lactate dehydrogenase assay; type: functional, organism-based; settings: D10, 72 h
Plasmodium falciparum [5] = test: Antimalarial activity against chloroquine resistant Plasmodium falciparum W2 infected in human red blood cells assessed as reduction in parasite growth at 60 uM measured after 72 hrs by parasite lactate dehydrogenase assay; type: functional, organism-based
Plasmodium falciparum [6] = test: Antimalarial activity against chloroquine sensitive Plasmodium falciparum D10 infected in human red blood cells assessed as reduction in parasite growth at 60 uM measured after 72 hrs by parasite lactate dehydrogenase assay; type: functional, organism-based
[7] = Selectivity index, ratio of IC50 for antimalarial activity against chloroquine sensitive Plasmodium falciparum D10 infected in human red blood cells to IC50 for cytotoxicity against mouse BMDM cells; type: toxicity, cell-based; settings: read-out: Selectivity Index
[8] = Selectivity index, ratio of IC50 for antileishmanial activity against Leishmania infantum (MHOM/TN/80/IPTI) promastigotes to IC50 for Cytotoxicity against mouse BMDM cells; type: toxicity, cell-based; settings: read-out: Selectivity Index
[9] = Selectivity index, ratio of IC50 for antimalarial activity against chloroquine resistance Plasmodium falciparum W2 infected in human red blood cells to IC50 for Cytotoxicity against mouse BMDM cells; type: toxicity, cell-based; settings: read-out: Selectivity Index
BMDM = test: Cytotoxicity against mouse BMDM cells assessed as reduction in cell viability incubated for 72 hrs by MTT assay; type: cell-based
[10] = Selectivity index, ratio of IC50 for antileishmanial activity against Leishmania tropica (MHOM/SY/2012/ISS3130) promastigotes to IC50 for Cytotoxicity against mouse BMDM cells; type: toxicity, cell-based; settings: read-out: Selectivity Index
Leishmania tropica [11] = test: Antileishmanial activity against Leishmania tropica (MHOM/SY/2012/ISS3130) promastigotes assessed as reduction in parasite viability at 60 uM measured after 72 hrs by MTT assay; type: functional, organism-based
Leishmania infantum [12] = test: Antileishmanial activity against Leishmania infantum (MHOM/TN/80/IPTI) promastigotes assessed as reduction in parasite viability at 60 uM measured after 72 hrs by MTT assay; type: functional, organism-based; settings: MHOM/TN/80/IPT
Plasmodium falciparum [13] = test: Antimalarial activity against […] late stage (IV-V) Plasmodium falciparum 3D7 gametocytes expressing CBG99 luciferase infected in human red blood cells assessed as reduction in gametocyte viability measured after 72 hrs by luminescence based assay; type: functional, organism-based; settings: 3D7, 72 h

SMILES | IC50 (Plasmodium falciparum [1]) [µM] | IC50 (Leishmania tropica [2]) [µM] | IC50 (Leishmania infantum [3]) [µM] | IC50 (Plasmodium falciparum [4]) [µM] | also measured
COc1ccc(-c2noc(C3CC(Br)=NO3)n2)cc1 (stereo not given) | 42.5 | 14.7 | 12 | 34.4 | 
C[C@@H]1[C@H](O)[C@@H](C)/C=C/C=C/C=C/C=C/C=C/C=C/C=C/[C@H](O[C@@H]2O[C@H](C)[C@@H](O)[C@H](N)[C@@H]2O)C[C@@H]2O[C@](O)(C[C@@H](O)C[C@@H](O)[C@H](O)CC[C@@H](O)C[C@@H](O)CC(=O)O[C@H]1C)C[C@H](O)[C@H]2C(=O)O [AMPHOTERICIN B] |  |  | 0.11 |  | 
BrC1=NOC(c2nc(-c3ccccc3)cs2)C1 (stereo not given) | 39.7 | 33.8 | 28.8 | 45.8 | 
BrC1=NOC(c2nc(-c3ccccc3)no2)C1 (stereo not given) | 64.8 | 43 | 17.3 | 52.7 | 
BrC1=NOC(c2nc(-c3ccsc3)no2)C1 (stereo not given) | 48.1 | 32.6 | 27.3 | 58.3 | 
Nc1ccc(-c2noc(C3CC(Br)=NO3)n2)cc1 (stereo not given) | 39.5 | 33.8 | 28.8 | 45.7 | 
N[C@H](c1nc(-c2ccccc2)no1)[C@@H]1CC(Br)=NO1 |  |  |  |  | inhibition (Plasmodium falciparum [5]): inactive; inhibition (Plasmodium falciparum [6]): inactive
CC(C)(C)c1ccc(-c2noc(C3CC(Br)=NO3)n2)cc1 (stereo not given) | 3.5 | 0.31 | 0.29 | 3.1 | selectivity ratio [7]: 12; selectivity ratio [8]: 129; selectivity ratio [9]: 11; IC50 (BMDM): 37.3 µM; selectivity ratio [10]: 120
BrC1=NOC(c2nnc(-c3ccccc3)o2)C1 (stereo not given) | 15.1 |  |  | 16.7 | inhibition (Leishmania tropica [11]): inactive; inhibition (Leishmania infantum [12]): inactive
BrC1=NOC(c2ncc(-c3ccccc3)o2)C1 (stereo not given) | 39.3 | 50.7 |  | 32.2 | inhibition (Leishmania infantum [12]): inactive
FC(F)(F)c1ccc(-c2noc(C3CC(Br)=NO3)n2)cc1 (stereo not given) | 34 | 6.9 | 8.7 | 31 | 
CC(C)(C)c1ccc(-c2nnc(C3CC(Br)=NO3)o2)cc1 (stereo not given) | 0.058 | 7.5 | 3.5 | 0.035 | selectivity ratio [7]: 1140; selectivity ratio [8]: 11; selectivity ratio [9]: 690; IC50 (BMDM): 40 µM; IC50 (Plasmodium falciparum [13]): 10.4 µM; selectivity ratio [10]: 5
BrC1=NOC(c2nc(-c3ccccc3)n[nH]2)C1 (stereo not given) | 43 |  |  | 35.3 | inhibition (Leishmania tropica [11]): inactive; inhibition (Leishmania infantum [12]): inactive
BrC1=NOC(c2nnc(-c3ccccc3)s2)C1 (stereo not given) | 41.3 |  | 60.3 | 22.9 | inhibition (Leishmania tropica [11]): inactive
BrC1=NOC(c2nc(-c3ccc4c(c3)OCCO4)no2)C1 (stereo not given) | 32.7 | 39.4 | 25.6 | 29.8 | 
Fc1ccc(-c2noc(C3CC(Br)=NO3)n2)cc1 (stereo not given) |  | 10.9 | 9 |  | inhibition (Plasmodium falciparum [5]): inactive; inhibition (Plasmodium falciparum [6]): inactive
BrC1=NOC(c2nc(-c3cccs3)no2)C1 (stereo not given) | 46 | 24.9 | 26.2 | 52.7 | 
BrC1=NOC(c2nc(-c3ccc4ccccc4c3)no2)C1 (stereo not given) | 27.2 | 5.3 | 10.5 | 27.8 | 
O=C(O)c1ccc(-c2noc(C3CC(Br)=NO3)n2)s1 (stereo not given) | 40.4 |  |  | 45.9 | inhibition (Leishmania tropica [11]): inactive; inhibition (Leishmania infantum [12]): inactive
O=C(O)c1ccc(-c2noc(C3CC(Br)=NO3)n2)cc1 (stereo not given) | 45.3 |  |  | 36.9 | inhibition (Leishmania tropica [11]): inactive; inhibition (Leishmania infantum [12]): inactive
Oc1ccc(-c2noc(C3CC(Br)=NO3)n2)cc1 (stereo not given) | 32.5 | 25.6 | 14.7 | 39 | 
